Activity calls are given as the source filed them. No cut-off for these calls is given here.
Legend:
[1] = target: 3',5'-cyclic-AMP phosphodiesterase 4B (Homo sapiens, UniProt Q07343); test: Inhibition of recombinant full length PDE4B (unknown origin) using FAM-cAMP as substrate at 1 uM preincubated with compound for compound for 15 mins followed by substrate addition and measured after 30 mins by Envision multilabel reader analysis relative to control; conditions: time 45.0 min
RAW264.7 = test: Cytotoxicity against mouse RAW264.7 cells assessed as reduction in cell viability incubated for 24 hrs by CCK-8 assay; assay type: toxicity, cell-based; conditions: raw264.7, 24 h
HEK-293T = test: Cytotoxicity against human HEK293T cells assessed as reduction in cell viability incubated for 24 hrs by CCK-8 assay; assay type: toxicity, cell-based; parameters: concentration or dose not given beside the values
HepG2 = test: Cytotoxicity against human HepG2 cells assessed as reduction in cell viability incubated for 24 hrs by CCK-8 assay; assay type: toxicity, cell-based; conditions: hepg2, 24 h
Phosphodiesterase 4 = Phosphodiesterase 4 (Homo sapiens, UniProt P27815+Q08499+Q07343+Q08493); test: Inhibition of PDE4 (unknown origin); assay type: protein assay
[2] = Inhibition of PDE3 (unknown origin); parameters: species or system Homo sapiens
Mus musculus [3] = test: (§1) Anti-inflammatory activity against cigarette-smoke/LPS-induced COPD male C57BL/6 mouse model assessed as decrease in collagen formation at 5 mg/kg pretreated with cigarette smoke exposure for 21 weeks with subsequent LPS induction twice on the first and 15th day followed by compound administration every day via gavage for 4 weeks by masson staining based microscopic analysis; assay type: functional, organism-based
Mus musculus [4] = test: as §1, with “reduction” for “decrease”, “TNF-alpha level in BALF” for “collagen formation”, “weeks” for “weeks by masson staining based microscopic analysis”; assay type: functional, organism-based
Mus musculus [5] = test: Anti-inflammatory activity against LPS-induced acute lung injury male BALB/c mouse model assessed as enlarged bronchiole tubes in lung at 4 mg/kg administered once a day via gavage for 7 days followed by LPS stimulation and measured after 24 hrs by H and E staining based microscopic analysis; assay type: functional, organism-based; conditions: time 192.0 hrs
Mus musculus [6] = test: as §1, with “reduction” for “decrease”, “IL-6 level in BALF” for “collagen formation”, “weeks” for “weeks by masson staining based microscopic analysis”; assay type: functional, organism-based
Mus musculus [7] = test: Anti-inflammatory activity against LPS-induced acute lung injury male BALB/c mouse model assessed as restoration of alveolar septa in lung at 4 mg/kg administered once a day via gavage for 7 days followed by LPS stimulation and measured after 24 hrs by H and E staining based microscopic analysis; assay type: functional, organism-based; conditions: time 192.0 hrs
Mus musculus [8] = test: Anti-inflammatory activity against LPS-induced acute lung injury male BALB/c mouse model assessed as relaxation of alveolar in lung at 4 mg/kg administered once a day via gavage for 7 days followed by LPS stimulation and measured after 24 hrs by H and E staining based microscopic analysis; assay type: functional, organism-based; conditions: time 192.0 hrs
Mus musculus [9] = test: as §1, with “reduction” for “decrease”, “MMP9 level in BALF” for “collagen formation”, “weeks” for “weeks by masson staining based microscopic analysis”; assay type: functional, organism-based
Mus musculus [10] = test: Anti-inflammatory activity against LPS-induced acute lung injury male BALB/c mouse model assessed as restoration of alveolar cavities in lung at 4 mg/kg administered once a day via gavage for 7 days followed by LPS stimulation and measured after 24 hrs by H and E staining based microscopic analysis; assay type: functional, organism-based; conditions: time 192.0 hrs
Mus musculus [11] = test: Antifibrotic activity against LPS-induced acute lung injury male BALB/c mouse model assessed as decrease in collagen deposition at 4 mg/kg administered once a day via gavage for 7 days followed by LPS stimulation and measured after 24 hrs by masson staining based microscopic analysis; assay type: functional, organism-based; conditions: time 192.0 hrs
Mus musculus [12] = test: as §1, with “reduction” for “decrease”, “bronchiole thickness” for “collagen formation”, “H and E” for “masson”; assay type: functional, organism-based

3',5'-cyclic-AMP phosphodiesterase 4B, sequence (Q07343 whole entry): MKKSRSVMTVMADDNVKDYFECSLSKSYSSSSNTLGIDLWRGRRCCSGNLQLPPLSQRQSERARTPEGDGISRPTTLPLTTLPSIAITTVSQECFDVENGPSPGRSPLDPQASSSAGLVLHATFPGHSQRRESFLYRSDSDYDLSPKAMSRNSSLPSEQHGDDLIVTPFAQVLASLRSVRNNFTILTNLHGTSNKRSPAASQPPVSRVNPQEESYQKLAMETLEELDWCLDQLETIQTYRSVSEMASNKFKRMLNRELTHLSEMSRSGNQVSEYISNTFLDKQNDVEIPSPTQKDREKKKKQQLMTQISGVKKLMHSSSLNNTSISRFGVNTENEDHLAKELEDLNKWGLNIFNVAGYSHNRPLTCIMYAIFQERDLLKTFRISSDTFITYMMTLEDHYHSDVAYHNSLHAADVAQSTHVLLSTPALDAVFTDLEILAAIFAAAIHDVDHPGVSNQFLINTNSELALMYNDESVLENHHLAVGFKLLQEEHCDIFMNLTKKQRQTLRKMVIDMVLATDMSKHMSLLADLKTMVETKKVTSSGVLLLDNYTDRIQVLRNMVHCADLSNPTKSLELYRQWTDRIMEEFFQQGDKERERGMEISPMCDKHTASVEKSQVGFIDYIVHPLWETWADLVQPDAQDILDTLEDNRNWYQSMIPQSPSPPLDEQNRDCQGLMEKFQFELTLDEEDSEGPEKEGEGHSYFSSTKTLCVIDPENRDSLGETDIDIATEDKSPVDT

N#Cc1ccc(NNC(=O)c2ccc3[nH]c(-c4ccc(OC(F)F)c(OCC5CC5)c4)nc3c2)cc1
inhibition [1]: 76.2%

O=C(NCc1cccnc1)c1cccc2[nH]c(-c3ccc(OC(F)F)c(OCC4CC4)c3)nc12
Activity (RAW264.7): Non-toxic | inhibition [1]: 91.1%

COc1ccc(CNC(=O)c2cccc3[nH]c(-c4ccc(OC(F)F)c(OCC5CC5)c4)nc23)cn1
Activity (RAW264.7): Non-toxic | inhibition [1]: 93.4%

O=C(NCc1ccccn1)c1cccc2[nH]c(-c3ccc(OC(F)F)c(OCC4CC4)c3)nc12
Activity (RAW264.7): Non-toxic | inhibition [1]: 93.9%

O=C(Nc1ccccn1)c1cccc2[nH]c(-c3ccc(OC(F)F)c(OCC4CC4)c3)nc12
inhibition [1]: 81.6%

O=C(Nc1ccc2ncsc2c1)c1cccc2[nH]c(-c3ccc(OC(F)F)c(OCC4CC4)c3)nc12
inhibition [1]: 79.3%

O=C(NCc1ccc(F)cc1F)c1cccc2[nH]c(-c3ccc(OC(F)F)c(OCC4CC4)c3)nc12
Activity (RAW264.7): Non-toxic | Activity (HEK-293T): > 70% | inhibition [1]: 94%

O=C(NCc1ccc(F)c(F)c1)c1cccc2[nH]c(-c3ccc(OC(F)F)c(OCC4CC4)c3)nc12
Activity (RAW264.7): Non-toxic | Activity (HEK-293T): > 70% | inhibition [1]: 90.6%

COc1ccc(-c2ccc3[nH]c(-c4ccc(OC(F)F)c(OCC5CC5)c4)nc3c2)cc1OC
inhibition [1]: 80.9%

COc1ccc(-c2nc3cc(C(=O)NCc4ccc(F)cc4F)ccc3[nH]2)cc1OCC1CC1
inhibition [1]: 23.3%

O=C(Nc1ccc2ncsc2c1)c1cccc2[nH]c(-c3ccc(OC(F)F)c(OC(F)F)c3)nc12
inhibition [1]: 70.2%

O=C(Nc1ccc2[nH]ccc2c1)c1cccc2[nH]c(-c3ccc(OC(F)F)c(OCC4CC4)c3)nc12
Activity (RAW264.7): Non-toxic | Activity (HepG2): Non-toxic | inhibition [1]: 93.5%

COc1cc2c(cc1OC)-c1c/c(=N\c3c(C)cc(C)cc3C)n(CCNC(N)=O)c(=O)n1CC2 [ENSIFENTRINE]
IC50 (Phosphodiesterase 4): 1479 nM | IC50 [2]: 0.4 nM

O=C(Nc1c(Cl)cncc1Cl)c1ccc(OC(F)F)c(OCC2CC2)c1
Activity (Mus musculus [3]): Active | Activity (Mus musculus [4]): Active | Activity (Mus musculus [5]): Active | Activity (Mus musculus [6]): Active | Activity (Mus musculus [7]): Active | Activity (Mus musculus [8]): Active | Activity (Mus musculus [9]): Active | Activity (Mus musculus [10]): Active | Activity (Mus musculus [11]): Active | Activity (Mus musculus [12]): Active

O=C(Nc1ccncc1)c1ccc2[nH]c(-c3ccc(OC(F)F)c(OCC4CC4)c3)nc2c1
inhibition [1]: 62.3%

O=C(NCc1ncccn1)c1ccc2[nH]c(-c3ccc(OC(F)F)c(OCC4CC4)c3)nc2c1
inhibition [1]: 62.3%

O=C(NCc1cc(F)cc(F)c1)c1cccc2[nH]c(-c3ccc(OC(F)F)c(OCC4CC4)c3)nc12
inhibition [1]: 82.4%

O=C(NCc1cc(F)ccc1F)c1cccc2[nH]c(-c3ccc(OC(F)F)c(OCC4CC4)c3)nc12
inhibition [1]: 88.8%

O=C(NCc1cccc(F)c1F)c1cccc2[nH]c(-c3ccc(OC(F)F)c(OCC4CC4)c3)nc12
Activity (RAW264.7): Non-toxic | Activity (HEK-293T): > 70% | inhibition [1]: 91.9%

O=C(NCc1c(F)cc(F)cc1F)c1cccc2[nH]c(-c3ccc(OC(F)F)c(OCC4CC4)c3)nc12
inhibition [1]: 88.6%

O=C(NCc1c(F)cccc1F)c1cccc2[nH]c(-c3ccc(OC(F)F)c(OCC4CC4)c3)nc12
Activity (RAW264.7): Non-toxic | Activity (HEK-293T): > 70% | inhibition [1]: 94.4%

Cn1ccc(NC(=O)c2cccc3[nH]c(-c4ccc(OC(F)F)c(OCC5CC5)c4)nc23)n1
inhibition [1]: 94.1%

O=C(O)c1ccc(NNC(=O)c2cccc3[nH]c(-c4ccc(OC(F)F)c(OCC5CC5)c4)nc23)cc1
Activity (RAW264.7): Non-toxic | Activity (HepG2): Non-toxic | inhibition [1]: 96.2%

Cc1nc2ccc(NC(=O)c3cccc4[nH]c(-c5ccc(OC(F)F)c(OCC6CC6)c5)nc34)cc2s1
inhibition [1]: 56.8%

Cn1cc(NC(=O)c2cccc3[nH]c(-c4ccc(OC(F)F)c(OCC5CC5)c4)nc23)cn1
Activity (RAW264.7): Non-toxic | Activity (HepG2): Non-toxic | inhibition [1]: 93.6%

COc1ccc(-c2nc3cc(C(=O)Nc4ccc5ncsc5c4)ccc3[nH]2)cc1OCC1CC1
inhibition [1]: 49.2%

O=C(NCC1CCOCC1)c1cccc2[nH]c(-c3ccc(OC(F)F)c(OCC4CC4)c3)nc12
inhibition [1]: 94.6%

O=C(NCc1ccc(F)cc1F)c1ccc2[nH]c(-c3ccc(OC(F)F)c(OCC4CC4)c3)nc2c1
inhibition [1]: 24.8%

O=C(NCc1ccc2ccccc2c1)c1cccc2[nH]c(-c3ccc(OC(F)F)c(OCC4CC4)c3)nc12
Activity (RAW264.7): Non-toxic | Activity (HepG2): Non-toxic | inhibition [1]: 90.1%

O=C(NCc1ncccn1)c1cccc2[nH]c(-c3ccc(OC(F)F)c(OCC4CC4)c3)nc12
inhibition [1]: 95.5%

FC(F)Oc1ccc(-c2nc3cc(-c4ccncc4)ccc3[nH]2)cc1OCC1CC1
inhibition [1]: 81.4%

O=C(Nc1cccnc1)c1cccc2[nH]c(-c3ccc(OC(F)F)c(OCC4CC4)c3)nc12
Activity (RAW264.7): Non-toxic | Activity (HepG2): Non-toxic | inhibition [1]: 90.1%

O=C(Nc1ccccc1)c1cccc2[nH]c(-c3ccc(OC(F)F)c(OCC4CC4)c3)nc12
inhibition [1]: 83.8%

O=C(NCc1cnccn1)c1cccc2[nH]c(-c3ccc(OC(F)F)c(OCC4CC4)c3)nc12
inhibition [1]: 93.3%

O=C(Nc1nccs1)c1cccc2[nH]c(-c3ccc(OC(F)F)c(OC(F)F)c3)nc12
inhibition [1]: 68%

O=C(NCc1ccccc1F)c1cccc2[nH]c(-c3ccc(OC(F)F)c(OCC4CC4)c3)nc12
inhibition [1]: 85.2%

COc1ccc(-c2nc3cc(C(=O)NCc4ncccn4)ccc3[nH]2)cc1OCC1CC1
inhibition [1]: 42.5%

O=C(ON1C(=O)CCC1=O)c1cccc2[nH]c(-c3ccc(OC(F)F)c(OCC4CC4)c3)nc12
inhibition [1]: 91.5%

O=S(=O)(c1ccccc1)n1cc(-c2ccc3[nH]c(-c4ccc(OC(F)F)c(OCC5CC5)c4)nc3c2)c2ccccc21
inhibition [1]: 25.8%

O=C(NCc1c(F)cc(F)cc1F)c1cccc2[nH]c(-c3ccc(OC(F)F)c(OC(F)F)c3)nc12
inhibition [1]: 73.3%

O=C(Nc1ccncc1)c1cccc2[nH]c(-c3ccc(OC(F)F)c(OCC4CC4)c3)nc12
inhibition [1]: 65.6%

O=C(ON1C(=O)CCC1=O)c1ccc2[nH]c(-c3ccc(OC(F)F)c(OCC4CC4)c3)nc2c1
inhibition [1]: 62.2%

O=C(Nc1nc2ccccc2s1)c1cccc2[nH]c(-c3ccc(OC(F)F)c(OCC4CC4)c3)nc12
inhibition [1]: 53.1%

O=C(NCc1ccccc1)c1cccc2[nH]c(-c3ccc(OC(F)F)c(OCC4CC4)c3)nc12
Activity (RAW264.7): Non-toxic | Activity (HEK-293T): > 70% | inhibition [1]: 92.2%
